Experiments:
[1] = test system: MCAO operation-injured rats; test: MCAO model, rCBF of the rat acute cerebral ischemia tissue; assay type: in vivo; conditions: 30 minutes after the cerebral ischemia, 3 mg/kg
Protocol: Assay Method: The assay was conducted according to the MCAO model method as reported in the literature (Zhang Juntian, Modern Experimental Methods in Pharmacology, October 1998, the First Edition, the United Press of Beijing Medical University and Peking Union Medical College).
The rCBF (regional cerebral blood flow) value in the cortex medium-sized arterial blood-supplying area reduced rapidly to 20˜30% of the pre-operation basal level because of the MCAO operation. 24 hours after ischemia (pre-decapitation), the collateral circulation compensation established and the rCBF value increased a little compared with the value during the operation, but still below 50% of the basal level.
30 minutes after the cerebral ischemia, the rCBF value of the vehicle group was 31.09±5.35% of the basal value, and the rCBF values of the administration groups, i.e., the inclusion complex DL0108 group (1 mg/kg, 3 mg/kg, 10 mg/kg) and the nimodipine group, were 40.76±6.58%, 50.09±7.09%, 53.28±8.03%, 55.58±6.09% of the basal value respectively. […] The DL0108 (3, 10 mg/kg) group and the nimodipine (3 mg/kg) group had significant differences from the vehicle group (P<0.05).

[2] = Determination of the solubility of pinocembrin; assay type: physicochemical; conditions: water
Protocol: Through using cyclodextrin or its derivative to include pinocembrin and make pinocembrin molecules entrap in the tubular structure of cyclodextrin or its derivative, and therefore obtain the inclusion complex of pinocembrin with cyclodextrin or its derivative, the water-solubility of pinocembrin is enhanced greatly. […] The specific results are shown in Example 10.
In order to screen solubilizer, cosolvent and non-aqueous solvent useful for injection, a series of experiments were conducted with their general dosages respectively to determine the solubilization effect of pinocembrin.
The solubilities in Table 1 are the solubilities of pinocembrin.

For COCCOC(=O)C1=C(C)NC(C)=C(C(=O)OC(C)C)C1c1cccc([N+](=O)[O-])c1 (centres unmarked) [nimodipine], the rCBF value [1] was 55.58±6.09 % of the basal value.

O=C1CC(c2ccccc2)Oc2cc(O)cc(O)c21 (centres unmarked) [pinocembrin, 2,3-Dihydro-5,7-dihydroxy-2-phenyl-4H-1-benzopyran-4-one] gave a solubility [2] of less than 200 µg/mL.
